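Protocol summary: plate cells (96-well), add compound at 5 concentrations, incubate 48 h, interpolate endpoints linearly. GI50: concentration for 50% inhibition of growth. TGI: concentration producing complete growth inhibition.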
How the values were obtained:
Experiment in all cases: DTP human tumour cell line panel, 48 h
[1] = system: A549 NSCLC
[2] = system: ACHN renal
[3] = system: COLO 205 colon
[4] = system: HOP-62 NSCLC
[5] = system: IGROV1 ovarian
[6] = system: M14 melanoma
[7] = system: MOLT-4 leukemia
[8] = system: SW-620 colon
[9] = system: DU-145 prostate
[10] = system: T-47D breast

SMILES | TGI [1] | TGI [2] | TGI [3] | TGI [4] | TGI [5] | TGI [6] | TGI [7] | TGI [8] | GI50 [2] | GI50 [3] | GI50 [9] | TGI [9] | GI50 [6] | GI50 [7] | GI50 [8] | GI50 [10] | TGI [10] | GI50 [1] | GI50 [4] | GI50 [5]
O=C(NCCCCCCNC(=O)NC1OCC(O)C(O)C1O)NC1OCC(O)C(O)C1O (configuration not stated) | > 100 µM | > 100 µM | > 100 µM | > 100 µM | > 100 µM | > 100 µM | > 100 µM | > 100 µM | – | – | – | – | – | – | – | – | – | – | – | –
CNc1ccc(C(=O)CC(O)CCC(C)C2OC(=O)CC(O)CC(=O)CC(O)CC(O)CC(O)CC(O)CC3(O)CC(O)C(C(=O)NCCc4ccccn4)C(CC(OC4OC(C)C(O)C(N)C4O)/C=C/C=C/C=C/C=C\C=C/C=C/C=C/C2C)O3)cc1 (configuration not stated) | – | 1.53 µM | > 50 µM | – | > 50 µM | – | > 50 µM | > 50 µM | 0.841 µM | 1.63 µM | 0.183 µM | 0.672 µM | 0.165 µM | 0.207 µM | > 41.5 µM | 1.26 µM | > 50 µM | – | – | –
O=C(OC(CNc1c(C(=O)c2ccccc2)c(=O)n(Cc2ccccc2)c(=O)n1Cc1ccccc1)CN1CCCCC1)c1ccccc1 (configuration not stated) | > 100 µM | > 100 µM | 47.8 µM | 33.6 µM | 36.9 µM | 31.1 µM | – | > 100 µM | 30.1 µM | 19.6 µM | 29.3 µM | 80.9 µM | 16.3 µM | – | 35.7 µM | > 100 µM | > 100 µM | 50.3 µM | 18 µM | 17.4 µM
COc1cc2c3c(c1OCc1ccccc1)NCCC3NCC2 (configuration not stated) | > 100 µM | – | > 100 µM | > 100 µM | > 100 µM | > 100 µM | > 100 µM | > 100 µM | – | – | – | – | – | – | – | – | – | – | – | –
CCNC(=O)c1ccc2c(c1)nc(-c1ccc(Cl)cc1)n2-c1cc(C(C)(C)C)[nH]n1 | 31.9 µM | 13.2 µM | 14.4 µM | 36.2 µM | 64.8 µM | 10.8 µM | 25.1 µM | – | 3.48 µM | 3.5 µM | 3.72 µM | 34.9 µM | 2.97 µM | 3.49 µM | – | 3.99 µM | > 100 µM | 3.19 µM | 5.41 µM | 5.22 µM
CCCCCCCCCCCCCC(=O)OC1C(CO)OC(=O)C1O (configuration not stated) | > 100 µM | > 100 µM | > 100 µM | > 100 µM | > 100 µM | > 100 µM | > 100 µM | > 100 µM | – | – | – | – | – | – | – | – | – | – | – | –
CCCN(CCC)c1ccc(/C=N/NC(=O)c2cccnc2)cc1 | > 100 µM | > 100 µM | > 100 µM | > 100 µM | > 100 µM | – | > 100 µM | > 100 µM | 39.5 µM | 31.5 µM | 36.1 µM | > 100 µM | – | 31 µM | 18.1 µM | 28.1 µM | > 100 µM | 27.5 µM | 37.9 µM | 46.8 µM
O=C1C2C3CCC(C2C(=O)N1CO)C1C2C(=O)N(CO)C(=O)C2C31 (configuration not stated) | > 67.6 µM | > 63 µM | > 59.6 µM | > 100 µM | > 100 µM | > 100 µM | 67.7 µM | > 67.5 µM | – | – | – | – | – | – | – | – | – | – | – | –
CO[C@]12CCC(=O)N1C=Cc1c2[nH]c2ccccc12 | > 100 µM | > 100 µM | > 100 µM | > 100 µM | > 100 µM | > 100 µM | > 100 µM | > 100 µM | – | – | – | – | – | – | – | – | – | – | – | –
N#CC(C#N)=Cc1ccc(Oc2ccccc2)cc1 | > 100 µM | > 31.6 µM | > 100 µM | > 100 µM | > 69 µM | 47.2 µM | 98.4 µM | 72.3 µM | – | – | – | – | – | – | – | – | – | – | – | –
COc1cc(C2C(C(=O)OCc3ccccc3)=C(C)NC(C)=C2C(=O)OCc2ccccc2)cc(OC)c1OC | > 100 µM | > 100 µM | – | 66.5 µM | – | – | > 100 µM | – | 2.79 µM | – | – | – | – | 1.31 µM | – | 3.67 µM | > 100 µM | 3.6 µM | 12.1 µM | –
N#C/C(=C\c1ccc([N+](=O)[O-])s1)c1nc2cc(Br)ccc2s1 | > 100 µM | – | 0.844 µM | 1.68 µM | 1.14 µM | 0.323 µM | > 35.5 µM | 1.06 µM | – | 0.269 µM | 0.719 µM | > 100 µM | 0.142 µM | 0.335 µM | 0.244 µM | – | – | 0.509 µM | 0.314 µM | 0.254 µM
CC1=C2[C@@H](c3ccccc3)C3C=CC2(c2ccccc23)N(C(=O)Nc2cccc3ccccc23)C1=O (some centres not stated) | > 100 µM | > 100 µM | > 100 µM | > 100 µM | > 100 µM | > 100 µM | > 100 µM | > 100 µM | – | – | – | – | – | – | – | – | – | – | – | –
CC(=O)OCc1c(C)c2ccccc2n1C(C)=O | > 100 µM | 71 µM | > 100 µM | > 100 µM | > 100 µM | > 100 µM | 86.7 µM | > 100 µM | – | – | – | – | – | – | – | – | – | – | – | –
CCOC(=O)NN(C(=O)OCC)C(C(=O)c1ccc(Cl)cc1)=C1NCCN1 | > 100 µM | > 100 µM | > 100 µM | > 100 µM | > 100 µM | > 100 µM | > 100 µM | > 100 µM | – | – | – | – | – | – | – | – | – | – | – | –
CCc1cccc(CC)c1NC(=O)c1ccn2c1CCc1cnc(Nc3ccc(N4CCN(C)CC4)cc3OC)nc1-2 | 42 µM | 12.4 µM | 2.36 µM | – | 19.4 µM | 3.62 µM | – | 5.94 µM | 2.31 µM | 0.0231 µM | 2.6 µM | 15.8 µM | 1.59 µM | – | 1.11 µM | 1.55 µM | 4.18 µM | 2.17 µM | – | 2.52 µM
Cc1cn2c(/C=N/N=C(N)N)c(-c3cc(Cl)sc3Cl)nc2s1 | – | 1.63 µM | – | – | – | 1.56 µM | 2.06 µM | – | 0.908 µM | – | – | – | 0.874 µM | 1.17 µM | – | – | – | – | – | –
CN/N=C(/CC(=O)c1sc(-n2nc(-c3ccccc3)cc2-c2ccccc2)nc1C)C(=O)Nc1ccc(Cl)c(Cl)c1 | > 100 µM | > 100 µM | > 100 µM | > 100 µM | > 100 µM | – | > 100 µM | > 100 µM | – | – | – | – | – | – | – | – | – | – | – | –
CC(C)N(C(=O)C12C3C4C5C3C1(C#N)C5C42)C(C)C (configuration not stated) | > 100 µM | > 100 µM | > 100 µM | > 100 µM | > 100 µM | > 100 µM | > 100 µM | > 100 µM | – | – | – | – | – | – | – | – | – | – | – | –
Cc1ccc(S(=O)(=O)NC(=O)C#CCOC2CCCCO2)cc1 (configuration not stated) | > 100 µM | > 100 µM | – | – | – | > 100 µM | > 100 µM | > 100 µM | – | – | – | – | – | – | – | – | – | – | – | –

From PubChem BioAssay (NCI)
